Measurements taken from patent publication US20240316047A1, “INHIBITORS OF RNA HELICASE DHX9 AND USES THEREOF” (ACCENT THERAPEUTICS, INC., priority 2022, published 2024).
Where two headings read alike, the source gives them in different places. Values belong to the molecule of their own block, whether it stands above or below them.

Columns and labels:
[1] = target: Human recombinant DHX9 protein (Homo sapiens (Human), UniProt Q08211); test: DHX9 ATPase assay (ADP-Glo); type: biochemical; conditions: for IC50: read-out: DHX9 Biochemical Inflection Point
Chain of Human recombinant DHX9 protein (Q08211 whole entry): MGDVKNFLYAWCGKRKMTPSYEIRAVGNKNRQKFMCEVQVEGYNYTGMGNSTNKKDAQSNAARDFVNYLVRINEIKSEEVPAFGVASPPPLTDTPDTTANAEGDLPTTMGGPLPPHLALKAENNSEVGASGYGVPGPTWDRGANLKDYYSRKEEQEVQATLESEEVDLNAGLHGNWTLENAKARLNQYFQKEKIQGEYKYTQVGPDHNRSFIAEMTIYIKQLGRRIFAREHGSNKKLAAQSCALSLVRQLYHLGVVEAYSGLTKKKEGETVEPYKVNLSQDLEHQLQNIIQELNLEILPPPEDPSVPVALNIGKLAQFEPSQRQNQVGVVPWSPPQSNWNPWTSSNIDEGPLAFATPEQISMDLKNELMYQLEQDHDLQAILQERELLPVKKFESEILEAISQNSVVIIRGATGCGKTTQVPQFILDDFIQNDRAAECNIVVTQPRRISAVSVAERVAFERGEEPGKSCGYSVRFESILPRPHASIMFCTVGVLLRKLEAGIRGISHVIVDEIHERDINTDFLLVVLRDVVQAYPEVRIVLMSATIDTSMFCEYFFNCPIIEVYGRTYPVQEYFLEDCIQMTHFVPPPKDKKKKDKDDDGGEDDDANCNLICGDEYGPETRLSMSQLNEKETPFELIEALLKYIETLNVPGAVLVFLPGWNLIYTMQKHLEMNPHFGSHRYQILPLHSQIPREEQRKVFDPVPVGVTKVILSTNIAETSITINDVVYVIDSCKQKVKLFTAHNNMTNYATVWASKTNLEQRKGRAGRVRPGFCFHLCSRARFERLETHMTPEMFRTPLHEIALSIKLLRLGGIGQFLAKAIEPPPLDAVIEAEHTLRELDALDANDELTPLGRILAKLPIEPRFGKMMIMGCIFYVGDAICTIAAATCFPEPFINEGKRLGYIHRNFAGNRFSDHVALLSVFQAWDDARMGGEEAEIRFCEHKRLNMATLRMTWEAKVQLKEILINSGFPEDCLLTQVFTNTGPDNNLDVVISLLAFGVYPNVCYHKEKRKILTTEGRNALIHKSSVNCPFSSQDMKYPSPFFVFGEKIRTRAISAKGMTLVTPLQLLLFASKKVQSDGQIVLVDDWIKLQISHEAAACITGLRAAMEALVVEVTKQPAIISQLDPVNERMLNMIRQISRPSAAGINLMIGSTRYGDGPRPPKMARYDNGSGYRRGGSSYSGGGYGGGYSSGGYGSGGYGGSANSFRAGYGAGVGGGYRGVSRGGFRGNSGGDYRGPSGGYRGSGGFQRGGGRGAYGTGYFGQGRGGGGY

[2] = system: circBRIP1 in HCT116 cells; test: DHX9 circBRIP1 cellular target engagement SYBR Green assay; type: cell-based
LS411N cells = test: DHX9 cellular proliferation assay (CellTiter-Glo), LS411N (CRC-MSI); type: cell-based; conditions: performed at Pharmaron, read-out: LS411N (CRC-MSI-H) Antiproliferative
[3] = system: circBRIP1 in HCT116 cells; test: DHX9 circBRIP1 cellular target engagement TaqMan multiplex assay; type: cell-based; conditions: read-out: DHX9 Cellular Target Engagement
NCI-H747 cells = test: DHX9 cellular proliferation assay (CellTiter-Glo), NCI-H747 (CRC-MSS); type: cell-based; conditions: read-out: H747 (CRC-MSS) Antiproliferative
[4] = values marked +, read-out: DHX9 Cellular Target Engagement EC50
[5] = Homo sapiens, HCT-116, values marked +, read-out: DHX9 Cellular Target Engagement EC50
[6] = Homo sapiens, HCT-116, SyBr assay (^+), read-out: DHX9 Cellular Target Engagement
[7] = Homo sapiens, NCI-H747, performed at Pharmaron
[8] = Homo sapiens, HCT-116, Taqman assay (*)

Compound: CS(=O)(=O)Nc1cc(Cl)cc(NC(=O)c2cnn(-c3ncccc3OCc3cccc(Br)c3)c2)c1 [Example 231]
DHX9 Biochemical Max Inhibition [1]: 66.3%
IC50 [1]: 49.1 nM
EC50 [2, 5]: 203 nM

Compound: CS(=O)(=O)Nc1cc(Cl)cc(NC(=O)c2cnn(-c3c(F)cc(F)cc3OCc3cnco3)c2)c1 [Example 429]
DHX9 Biochemical Max Inhibition [1]: 59.6
IC50 [1]: 255 nM
EC50 [2, 6]: 1180 nM

Compound: Cc1sc(C(=O)Nc2cc(Cl)cc(NS(C)(=O)=O)c2)cc1-c1ncc(N2CC(C(F)(F)F)C2)cc1F [Example 460, N-(3-chloro-5-(methylsulfonamido)phenyl)-4-(3-fluoro-5-(3-(trifluoromethyl)azetidin-1-yl)pyridin-2-yl)-5-methylthiophene-2-carboxamide]
IC50 (LS411N cells): 221 nM
DHX9 Biochemical Max Inhibition [1]: 60.9
IC50 [1]: 131 nM
EC50 ([3]; Taqman assay (*)): 58.6 nM

Compound: Cc1sc(C(=O)Nc2cc(Cl)cc(NS(C)(=O)=O)c2)cc1-c1ncc(N2CC(C(F)(F)F)C2)cc1F [Example 477]
IC50 (LS411N cells): 80.2 nM
DHX9 Biochemical Max Inhibition [1]: 68
IC50 [1]: 46.8 nM
IC50 (NCI-H747 cells; performed at Pharmaron): 2520 nM
EC50 ([3]; Taqman assay (*)): 24.2 nM

Compound: Cc1cc(C(=O)Nc2cc(Cl)cc(NS(C)(=O)=O)c2)cn1-c1ncc(N2CCC(F)(F)C2)cc1F [Example 408]
IC50 (LS411N cells; Homo sapiens, LS-411N): 215 nM
DHX9 Biochemical Max Inhibition [1]: 63
IC50 [1]: 41.6 nM
IC50 (NCI-H747 cells; [7]): 8160 nM
EC50 [3, 8]: 67.1 nM

Compound: CS(=O)(=O)Nc1cc(F)cc(NC(=O)c2cnn(-c3ccccc3OCc3ccccc3)c2)c1 [Example 430]
DHX9 Biochemical Max Inhibition [1]: 74.9
IC50 [1]: 142 nM
EC50 [2, 6]: 1170 nM

Compound: Cc1sc(C(=O)Nc2cc(Cl)cc(NS(C)(=O)=O)c2)cc1-c1ncc(OC(C)C)cc1F [Example 455]
IC50 (LS411N cells; Homo sapiens, LS-411N): 88.6 nM
DHX9 Biochemical Max Inhibition [1]: 67.3
IC50 [1]: 34.2 nM
IC50 (NCI-H747 cells; [7]): 6780 nM
EC50 [3, 8]: 57.6 nM

Compound: CS(=O)(=O)Nc1cc(Cl)cc(NC(=O)c2cnn([C@@H]3CCCC[C@@H]3O)c2)c1 (relative stereo) [Example 153, N-(3-chloro-5-(methylsulfonamido)phenyl)-1-(2-cis-hydroxycyclohexyl)-1H-pyrazole-4-carboxamide]
DHX9 Biochemical Max Inhibition [1]: 59.7%
IC50 [1]: 256 nM
EC50 [2, 4]: 6110 nM

Compound: Cn1cc(C(=O)Nc2cc(Cl)cc(NS(C)(=O)=O)c2)cc1-c1ncc(N2CC3C(C2)C3(C)C)cc1F (stereo not shown) [Example 516]
DHX9 Biochemical Max Inhibition [1]: 57.7
IC50 [1]: 204 nM
EC50 [3, 8]: 220 nM

Compound: Cn1cc(C(=O)Nc2cc(Cl)cc(NS(C)(=O)=O)c2)cc1-c1ncc(F)cc1CCc1cncc(F)c1 [Example 728]
DHX9 Biochemical Max Inhibition [1]: 62.5
IC50 [1]: 158 nM
EC50 [3, 8]: 1350 nM

Compound: CC(Oc1cccnc1-c1cc(C(=O)Nc2cc(Cl)cc(NS(C)(=O)=O)c2)cn1C)c1cc(F)cc(C(F)(F)F)c1 (single isomer, unassigned) [Example 628, N-(3-chloro-5-methanesulfonamidophenyl)-5-{3-[1-[3-fluoro-5-(trifluoromethyl)phenyl]ethoxy]pyridin-2-yl}-1-methyl-1H-pyrrole-3-carboxamide]
DHX9 Biochemical Max Inhibition [1]: 58.1
IC50 [1]: 537 nM
EC50 ([3]; Taqman assay (*)): 1080 nM

Compound: CS(=O)(=O)Nc1cc(Cl)cc(NC(=O)c2cnn(-c3ncccc3OCc3cc(F)cc(F)c3)c2)c1 [Example 256]
DHX9 Biochemical Max Inhibition [1]: 70.1%
IC50 [1]: 403 nM
EC50 [2, 4]: 2030 nM

Compound: CN(C)S(=O)(=O)c1ccc(-n2cc(C(=O)Nc3cc(Cl)cc(NS(C)(=O)=O)c3)cn2)nc1 [Example 200]
DHX9 Biochemical Max Inhibition [1]: 57.7%
IC50 [1]: 84.6 nM

Compound: Cc1sc(C(=O)Nc2cc(Cl)cc(NS(C)(=O)=O)c2)cc1-c1ncc(C(F)(F)F)cc1F [Example 368]
DHX9 Biochemical Max Inhibition [1]: 67.3%
IC50 [1]: 118 nM

Compound: CS(=O)(=O)Nc1cc(Cl)cc(NC(=O)c2cnn(C3CC4(CC(N)C4)C3)c2)c1 (stereo not shown) [Example 319]
DHX9 Biochemical Max Inhibition [1]: 70.1%
IC50 [1]: 57.7 nM

Compound: COc1cc2cc(C(=O)Nc3cc(Cl)cc(NS(C)(=O)=O)c3)sc2cc1OC [Example 291]
DHX9 Biochemical Max Inhibition [1]: 59.7%
IC50 [1]: 144 nM

Stronger by IC50 [1], values ahead:

DHX9 Biochemical Max Inhibition [1]: 65.2
IC50 [1]: 31.6 nM
Compound: Cn1cc(C(=O)Nc2cc(Cl)cc(NS(C)(=O)=O)c2)cc1-c1ccc(N2CC(C(F)(F)F)C2)cn1 [Example 497]

DHX9 Biochemical Max Inhibition [1]: 64.4
IC50 [1]: 31.2 nM
IC50 (NCI-H747 cells; [7]): 4880 nM
EC50 [3, 8]: 59.3 nM
Compound: Cc1sc(C(=O)Nc2cc(Cl)cc(NS(C)(=O)=O)c2)cc1-c1ncccc1OC(C)c1cncc(F)c1 (single isomer, unassigned) [Example 631]
IC50 (LS411N cells; Homo sapiens, LS-411N): 156 nM

DHX9 Biochemical Max Inhibition [1]: 74.8
IC50 [1]: 28.9 nM
EC50 ([3]; Taqman assay (*)): 112 nM
Compound: CC(Oc1cccnc1-c1cc(C(=O)Nc2cc(Cl)cc(NS(C)(=O)=O)c2)cn1C)c1cc(F)cc(C(F)(F)F)c1 (single isomer, unassigned) [Example 629, N-(3-chloro-5-methanesulfonamidophenyl)-5-{3-[1-[3-fluoro-5-(trifluoromethyl)phenyl]ethoxy]pyridin-2-yl}-1-methyl-1H-pyrrole-3-carboxamide]

DHX9 Biochemical Max Inhibition [1]: 76
IC50 [1]: 25 nM
Compound: Cc1cc(C(=O)Nc2cc(Cl)cc(NS(C)(=O)=O)c2)cn1-c1ncccc1OCC1CC1 [Example 713]

DHX9 Biochemical Max Inhibition [1]: 54.1
IC50 [1]: 23.7 nM
IC50 (NCI-H747 cells; [7]): 2220 nM
EC50 [3, 8]: 16.8 nM
Compound: CCS(=O)(=O)Nc1cc(Cl)cc(NC(=O)c2cc(-c3ncc(N4CC(F)(F)C4)cc3F)n(C)c2)c1 [Example 517]
IC50 (LS411N cells; Homo sapiens, LS-411N): 135 nM

DHX9 Biochemical Max Inhibition [1]: 67
IC50 [1]: 22.9 nM
IC50 (NCI-H747 cells; [7]): > 10000 nM
Compound: Cc1sc(C(=O)Nc2cc(Cl)cc(NS(C)(=O)=O)c2)cc1-c1ncccc1OC(C)c1cncc(F)c1 (stereo not shown) [Example 630]

DHX9 Biochemical Max Inhibition [1]: 77.5%
IC50 [1]: 20.2 nM
EC50 [2, 5]: 61 nM
Compound: CCc1sc(C(=O)Nc2cc(Cl)cc(NS(C)(=O)=O)c2)cc1-c1ccccn1 [Example 232]

DHX9 Biochemical Max Inhibition [1]: 70.4
IC50 [1]: 11.7 nM
Compound: Cc1sc(C(=O)Nc2cc(Cl)cc(NS(C)(=O)=O)c2)cc1-c1ncc(N2CCC3(CC2)COC3)cc1F [Example 474]

DHX9 Biochemical Max Inhibition [1]: 69.7
IC50 [1]: 8.5 nM
Compound: Cn1cc(C(=O)Nc2cc(Cl)cc(NS(C)(=O)=O)c2)cc1-c1ccc(N2CC(CS(C)(=O)=O)C2)cn1 [Example 695]

DHX9 Biochemical Max Inhibition [1]: 71.2
IC50 [1]: 4.1 nM
EC50 ([2]; SyBr assay (^+), read-out: DHX9 Cellular Target Engagement): 23.2 nM
IC50 (NCI-H747 cells; performed at Pharmaron): > 10000 nM
Compound: Cc1cc(C(=O)Nc2cc(Cl)cc(NS(C)(=O)=O)c2)cn1-c1ccc(N(C)C2CCOC2)cn1 (stereo not shown) [Example 675]
IC50 (LS411N cells): 121 nM

DHX9 Biochemical Max Inhibition [1]: 66.5
IC50 [1]: 3.9 nM
IC50 (NCI-H747 cells; [7]): > 10000 nM
Compound: Cc1cc(C(=O)Nc2cc(Cl)cc(NS(C)(=O)=O)c2)cn1-c1ccc(N(C)C2CCOC2)cn1 (stereo not shown) [Example 674]

DHX9 Biochemical Max Inhibition [1]: 68.9
IC50 [1]: 3.6 nM
Compound: Cc1cc(C(=O)Nc2cc(Cl)cc(NS(C)(=O)=O)c2)cn1-c1ccc(N2CCC(F)(F)C2)cn1 [Example 396]

DHX9 Biochemical Max Inhibition [1]: 82.4%
IC50 [1]: 3.2 nM
EC50 [2, 4]: 50.4 nM
Compound: CS(=O)(=O)Nc1cc(Cl)cc(NC(=O)c2cnn(-c3ncccc3OCc3cc(F)cc(F)c3)c2)c1 [Example 187]
